Data published in US12180226B2, “Spirotricycle RIPK1 inhibitors and methods of uses thereof” (Merck Sharp & Dohme LLC, priority 2021, dated 2024).
Structures can show the parent of a compound that is named as a salt.

The molecules below were run against RIPK1 (recombinant GST-RIPK1 kinase domain, residues 1-327) (Homo sapiens (Human), UniProt Q13546) (assay: RIPK1-ADP-Glo Enzymatic Assay). Details: ADP-Glo; 25 nM GST-RIPK1, 300 μM ATP; assay lower limit ~25 nM; read-out: RIPK1 V0 Ec50.
Format: biochemical
Method in brief: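 ADP-Glo luminescence read after 150 min kinase reaction (300 μM ATP, 3 μM dephosphorylated MBP) using 25 nM Sf21-made GST-kinase domain (1-327), preincubated 30 min with compound. HEPES pH 7.3, 1% DMSO; ten-point 1:3 series from 100000 nM, EC50 via four-parameter sigmoidal regression.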

Chain of RIPK1 (recombinant GST-RIPK1 kinase domain, residues 1-327) (Q13546 1-327): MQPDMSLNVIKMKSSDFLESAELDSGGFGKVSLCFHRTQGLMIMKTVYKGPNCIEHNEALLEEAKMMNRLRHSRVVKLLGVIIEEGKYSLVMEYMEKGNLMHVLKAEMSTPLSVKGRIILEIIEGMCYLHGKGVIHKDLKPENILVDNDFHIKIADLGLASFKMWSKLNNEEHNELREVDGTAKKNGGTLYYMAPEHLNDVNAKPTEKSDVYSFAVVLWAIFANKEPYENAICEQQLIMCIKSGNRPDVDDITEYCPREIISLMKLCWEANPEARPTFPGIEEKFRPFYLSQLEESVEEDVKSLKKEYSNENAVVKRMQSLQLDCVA

Row | SMILES | EC50
1 | CCc1cc(C(=O)N2CCC3(CC2)O[C@@H]2CC[C@@H](c4cc(F)cc(F)c4)N2C3=O)no1 [Example 6.62, (5′S,7a′R)-5′-(3,5-difluorophenyl)-1-(5-ethyl-1,2-oxazole-3-carbonyl)tetrahydro-3′H-spiro[piperidine-4,2′-pyrrolo[2,1-b] [1,3]oxazol]-3′-one] | 0.0648 µM
2 | O=C1N2[C@@H](CC[C@H]2c2ccccc2)OC12CCN(c1ncnc3ccnn13)CC2F (single isomer, unassigned) [Example 4.98, (3[S or R],4[R or S], 5′S,7a′R)-3-fluoro-5′-phenyl-1-(pyrazolo [1,5-a][1,3,5]triazin-4-yl)tetrahydro-3′H-spiro[piperidine-4,2′-pyrrolo[2,1-b]oxazol]-3′-one] | 0.0363 µM
3 | O=C(c1cccnc1)N1CCC2(CC1)O[C@@H]1CC[C@@H](c3cc(F)cc(F)c3)N1C2=O [Example 5.64, (5′S,7a′R)-5′-(3,5-difluoro-phenyl)-1-nicotinoyltetra-hydro-3′H-spiro[piperidine-4,2′-pyrrolo[2,1-b]oxazol]-3′-one] | 0.0388 µM
4 | NC(=O)c1ccc(N2CCC3(CC2)O[C@@H]2CC[C@@H](c4cccc(F)c4)N2C3=O)n2ncnc12 [Example 4.152, 5-[(5′S,7a′R)-5′-(3-fluorophenyl)-3′-oxotetrahydro-1H,3′H-spiro[piperidine-4,2′-pyrrolo[2,1-b] [1,3]oxazol]-1-yl][1,2,4]triazolo[1,5-a] pyridine-8-carboxamide] | < 0.025 µM
5 | CC1CN(C(=O)c2ccccc2)CCC12O[C@@H]1CC[C@@H](c3cc(F)cc(F)c3)N1C2=O (single isomer, unassigned) [Example 2.4, (3[R or S],4[R or S], 5′S,7a′R)-1-benzoyl-5′-(3,5-difluorophenyl)-3-methyltetrahydro-3′H-spiro[piperidine-4,2′-pyrrolo[2,1-b]oxazol]-3′-one] | < 0.025 µM
6 | O=C(c1cccc(C2CC2)c1)N1CCC2(CC1)O[C@@H]1CC[C@@H](c3cc(F)cc(F)c3)N1C2=O [Example 5.62, (5′S,7a′R)-1-(3-cyclo-propylbenzoyl)-5′-(3,5-difluorophenyl)tetrahydro-3′H-spiro[piperidine-4,2′-pyrrolo[2,1-b]oxazol]-3′-one] | < 0.025 µM
7 | COc1cccc(C(=O)N2CCC3(CC2)O[C@@H]2CC[C@@H](c4cc(F)cc(F)c4)N2C3=O)c1 [Example 6.10, (5′S,7a′R)-5′-(3,5-difluorophenyl)-1-(3-methoxybenzene-1-carbonyl)tetrahydro-3′H-spiro[piperidine-4,2′-pyrrolo[2,1-b] [1,3]oxazol]-3′-one] | < 0.025 µM
8 | N#Cc1cnc(N2CCC3(CC2)S[C@@H]2CC[C@@H](c4ccccc4)N2C3=O)n2ncnc12 [Example 4.146, 5-[(5′S,7a′R)-3′-oxo-5′-phenyltetrahydro-1H,3′H-spiro[piperidine-4,2′-pyrrolo[2,1-b] [1,3]thiazol]-1-yl] [1,2,4]triazolo[1,5-c] pyrimidine-8-carbonitrile] | < 0.025 µM
9 | N#Cc1cc(N2CCC3(CC2)O[C@@H]2CC[C@@H](c4ccccc4)N2C3=O)ncn1 [Example 4.40, 6-[(5′S,7a′R)-3′-oxo-5′-phenyltetrahydro-1H,3′H-spiro[piperidine-4,2′-pyrrolo[2,1-b] [1,3]oxazol]-1-yl]pyrimidine-4-carbonitrile] | 0.0322 µM
10 | O=C(c1ccccc1)N1CCC2(CC1)O[C@@H]1CC[C@@H](c3cnsc3)N1C2=O [Example 17.7, (5′S,7a′R)-1-benzoyl-5′-(isothiazol-4-yl)tetrahydro-3′H-spiro[piperidine-4,2′-pyrrolo[2,1-b]oxazol]-3′-one] | 0.558 µM
11 | O=C(c1cnnc2ccccc12)N1CCC2(CC1)O[C@@H]1CC[C@@H](c3cc(F)cc(F)c3)N1C2=O [Example 6.58, (5′S,7a′R)-1-(cinn-oline-4-carbonyl)-5′-(3,5-difluorophenyl) tetrahydro-3′H-spiro [piperidine-4,2′-pyrrolo[2,1-b][1,3]-oxazol]-3'-one] | 0.263 µM
12 | Cn1cc(C(=O)N2CCC3(CC2)O[C@@H]2CC[C@@H](c4cc(F)cc(F)c4)N2C3=O)cn1 [Example 5.53, (5′S,7a′R)-5′-(3,5-difluoro-phenyl)-1-(1-methyl-1H-pyrazole-4-carbonyl)tetra-hydro-3′H-spiro[piperidine-4,2′-pyrrolo[2,1-b]oxazol]-3′-one] | 0.509 µM
13 | N#Cc1ccc(F)c(C(=O)N2CCC3(CC2)O[C@@H]2CC[C@@H](c4cccc(F)c4)N2C3=O)c1 [Example 6.130, 4-fluoro-3-[(5′S,7a′R)-5′-(3-fluorophenyl)-3′-oxotetrahydro-1H,3′H-spiro[piperidine-4,2′-pyrrolo[2,1-b][1,3]-oxazole]-1-carbonyl] benzonitrile] | < 0.025 µM
14 | COc1nccc(N2CCC3(CC2)O[C@@H]2CC[C@@H](c4ccccc4)N2C3=O)n1 [Example 4.17, (5′S,7a′R)-1-(2-methoxypyrimidin-4-yl)-5′-phenyltetrahydro-3′H-spiro[piperidine-4,2′-pyrrolo[2,1-b] [1,3]oxazol]-3′-one] | < 0.025 µM
15 | O=C(c1ncn2ccccc12)N1CCC2(CC1)O[C@@H]1CC[C@@H](c3cc(F)cc(F)c3)N1C2=O [Example 5.74, (5′S,7a′R)-5′-(3,5-difluoro-phenyl)-1-(imidazo[1,5-a]-pyridine-1-carbonyl)tetra-hydro-3′H-spiro[piperi-dine-4,2′-pyrrolo[2,1-b]oxazol]-3′-one] | 0.0424 µM
16 | Cc1cnn(-c2cc(N3CCC4(CC3)O[C@@H]3CC[C@@H](c5ccccc5)N3C4=O)ncn2)c1 [Example 4.26, (5′S,7a′R)-1-[6-(4-methyl-1H-pyrazol-1-yl)pyrimidin-4-yl]-5′-phenyltetrahydro-3′H-spiro[piperidine-4,2′-pyrrolo[2,1-b] [1,3]oxazol]-3′-one] | 0.0246 µM
17 | Cc1cn(-c2cc(N3CCC4(CC3)O[C@@H]3CC[C@@H](c5ccccc5)N3C4=O)ncn2)cn1 [Example 4.172, (5′S,7a′R)-1-[6-(4-methyl-1H-imidazol-1-yl)pyrimidin-4-yl]-5′-phenyltetrahydro-3′H-spiro[piperidine-4,2′-pyrrolo[2,1-b] [1,3]oxazol]-3′-one] | 0.0252 µM
18 | Cc1nc(N2CCC3(CC2)O[C@@H]2CC[C@@H](c4ccccc4)N2C3=O)ncc1-c1ncco1 [Example 21.11, (5′S,7a′R)-1-[4-methyl-5-(1,3-oxazol-2-yl)pyrimidin-2-yl]-5′-phenyltetrahydro-3′H-spiro[piperidine-4,2′-pyrrolo[2,1-b][1,3]oxazol]-3′-one] | < 0.025 µM
19 | O=C1N2[C@@H](CC[C@H]2c2cc(F)cc(F)c2)OC12CCN(c1ccc(OCC(F)F)c3ccnn13)CC2 [Example 19.4, (5′S,7a′R)-1-(4-(2,2-difluoroethoxy)pyrazolo [1,5-a]pyridin-7-yl)-5′-(3,5-difluorophenyl)tetrahydro-3′H-spiro[piperidine-4,2′-pyrrolo[2,1-b]oxazol]-3′-one, TFA salt] | 0.032 µM
20 | Cc1ccccc1CN1CCC2(CC1)O[C@@H]1CC[C@@H](c3cc(F)cc(F)c3)N1C2=O [Example 22.5, (5′S,7a′R)-5′-(3,5-difluorophenyl)-1-[(2-methylphenyl)methyl] tetrahydro-3′H-spiro[piperidine-4,2′-pyrrolo[2,1-b][1,3]oxazol]-3′-one] | 0.213 µM
21 | O=C1N2[C@@H](CC[C@H]2c2ccccc2)OC12CCN(c1cc(-c3cnn(C(F)F)c3)ncn1)CC2 [Example 10.2, (5′S,7a′R)-1-{6-[1-(difluoromethyl)-1H-pyrazol-4-yl]pyrimidin-4-yl}-5′-phenyltetrahydro-3′H-spiro[piperidine-4,2′-pyrrolo[2,1-b][1,3]oxazol]-3′-one] | < 0.025 µM
22 | Cc1nc(N2CCC3(CC2)O[C@@H]2CC[C@@H](c4ccccc4F)N2C3=O)ccc1C#N [Example 4.105, 6-((5′S,7a′R)-5′-(2-fluorophenyl)-3′-oxotetrahydro-3′H-spiro[piperidine-4,2′-pyrrolo[2,1-b]oxazol]-1-yl)-2-methylnicotinonitrile] | < 0.025 µM
23 | O=C1N2[C@@H](CC[C@H]2c2cc(F)cc(F)c2)OC12CCN(c1cc(-c3cnn(C(F)F)c3)ncn1)CC2 [Example 10.1, (5′S,7a′R)-1-(6-(1-(difluoromethyl)-1H-pyrazol-4-yl)pyrimidin-4-yl)-5′-(3,5-difluorophenyl) tetrahydro-3′H-spiro[piperidine-4,2′-pyrrolo[2,1-b]oxazol]-3′-one] | < 0.025 µM
24 | Cc1ccc(C)c(C(=O)N2CCC3(CC2)O[C@@H]2CC[C@@H](c4ccccc4)N2C3=O)c1 [Example 6.142, (5′S,7a′R)-1-(2,5-dimethylbenzene-1-carbonyl)-5′-phenyl-tetrahydro-3′H-spiro [piperidine-4,2′-pyrrolo[2,1-b][1,3]oxazol]-3′-one] | 0.0751 µM
25 | O=C1N2[C@@H](CC[C@H]2c2ccccc2)OC12CCN(c1ncnc3ccsc13)CC2 [Example 4.37, (5′S,7a′R)-5′-phenyl-1-(thieno[3,2-d]pyrimidin-4-yl)tetrahydro-3′H-spiro[piperidine-4,2′-pyrrolo[2,1-b] [1,3]oxazol]-3′-one] | < 0.025 µM
26 | N#Cc1cscc1[C@@H]1CC[C@H]2OC3(CCN(C(=O)c4ccccc4)CC3)C(=O)N21 [Example 17.13, 4-((5′S,7a′R)-1-benzoyl-3′-oxotetrahydro-3′H-spiro[piperidine-4,2′-pyrrolo[2,1-b]oxazol]-5′-yl)thiophene-3-carbonitrile] | 0.208 µM
27 | O=C1N2[C@@H](CC[C@H]2c2ccccc2)OC12CCN(c1ncnc3ccnn13)CC2 [Example 4.93, (5′S,7a′R)-5′-phenyl-1-(pyrazolo[1,5-a] [1,3,5]triazin-4-yl)tetrahydro-3′H-spiro[piperidine-4,2′-pyrrolo[2,1-b]oxazol]-3′-one, TFA salt] | < 0.025 µM
